Experimental data: patent publication US20070049564A1 (Wyeth, priority 2005, published 2007)
Converted amounts (≈) assume the structure as drawn. Where two headings read alike, the source gives them in different places.

Tests used:
Assay in all cases: MIC, broth microdilution
E. coli GC 2235 = conditions: Escherichia coli
P. aeruginosa GC 2214 = conditions: Pseudomonas aeruginosa
E. coli GC 3226 = conditions: Escherichia coli
S. typhimurium GC 2172 = conditions: Salmonella enterica, TYPHIMURIUM
E. coli GC 2203 = conditions: Escherichia coli
E. faecium GC 4556 = conditions: Enterococcus faecium
S. agalactiae GC 4564 = conditions: Streptococcus agalactiae
E. coli GC 2232 = conditions: Escherichia coli
S. aureus GC 2216 = conditions: Staphylococcus aureus
S. aureus GC 6467 = conditions: Staphylococcus aureus
E. coli GC 2271 = conditions: Escherichia coli
E. faecalis GC 2267 = conditions: Enterococcus faecalis
E. coli GC 2270 = conditions: Escherichia coli
E. coli GC 4559 = conditions: Escherichia coli
E. coli GC 4560 = conditions: Escherichia coli
E. faecalis GC 2242 = conditions: Enterococcus faecalis
E. coli GC 2231 = conditions: Escherichia coli
S. aureus GC 6335 = conditions: Staphylococcus aureus
S. pneumoniae* GC 4465 = conditions: Streptococcus pneumoniae
[1] = read-out: MINIMAL INHIBITORY CONCENTRATION MIC, Human Serum
[2] = read-out: MINIMAL INHIBITORY CONCENTRATION MIC, Mouse Serum
[3] = read-out: MINIMAL INHIBITORY CONCENTRATION MIC, Water

- MIC (E. coli GC 2235; GC2235, read-out: MINIMAL INHIBITORY CONCENTRATION MIC, Human Serum): > 64 µg/mL
- MIC (E. coli GC 2235; GC2235, read-out: MINIMAL INHIBITORY CONCENTRATION MIC, Mouse Serum): > 64 µg/mL
- MIC (E. coli GC 2235; GC2235, read-out: MINIMAL INHIBITORY CONCENTRATION MIC, Water): > 64 µg/mL
- MIC (P. aeruginosa GC 2214; GC2214, read-out: MINIMAL INHIBITORY CONCENTRATION MIC, Human Serum): > 64 µg/mL
- MIC (P. aeruginosa GC 2214; GC2214, read-out: MINIMAL INHIBITORY CONCENTRATION MIC, Mouse Serum): > 64 µg/mL
- MIC (P. aeruginosa GC 2214; GC2214, read-out: MINIMAL INHIBITORY CONCENTRATION MIC, Water): > 64 µg/mL
- MIC (E. coli GC 3226; GC3226, read-out: MINIMAL INHIBITORY CONCENTRATION MIC, Human Serum): > 64 µg/mL
- MIC (E. coli GC 3226; GC3226, read-out: MINIMAL INHIBITORY CONCENTRATION MIC, Mouse Serum): > 64 µg/mL
- MIC (E. coli GC 3226; GC3226, read-out: MINIMAL INHIBITORY CONCENTRATION MIC, Water): > 64 µg/mL
- MIC (S. typhimurium GC 2172; [1]): > 64 µg/mL
- MIC (S. typhimurium GC 2172; [2]): > 64 µg/mL
- MIC (S. typhimurium GC 2172; [3]): > 64 µg/mL
- MIC (E. coli GC 2203; GC2203, read-out: MINIMAL INHIBITORY CONCENTRATION MIC, Human Serum): > 64 µg/mL
- MIC (E. coli GC 2203; GC2203, read-out: MINIMAL INHIBITORY CONCENTRATION MIC, Mouse Serum): > 64 µg/mL
- MIC (E. coli GC 2203; GC2203, read-out: MINIMAL INHIBITORY CONCENTRATION MIC, Water): > 64 µg/mL
- MIC (E. faecium GC 4556; GC4556, read-out: MINIMAL INHIBITORY CONCENTRATION MIC, Human Serum): 4 µg/mL (≈ 5.83 µM)
- MIC (E. faecium GC 4556; GC4556, read-out: MINIMAL INHIBITORY CONCENTRATION MIC, Mouse Serum): 4 µg/mL (≈ 5.83 µM)
- MIC (E. faecium GC 4556; GC4556, read-out: MINIMAL INHIBITORY CONCENTRATION MIC, Water): 4 µg/mL (≈ 5.83 µM)
- MIC (S. agalactiae GC 4564; GC4564, read-out: MINIMAL INHIBITORY CONCENTRATION MIC, Human Serum): 8 µg/mL (≈ 11.7 µM)
- MIC (S. agalactiae GC 4564; GC4564, read-out: MINIMAL INHIBITORY CONCENTRATION MIC, Mouse Serum): 8 µg/mL (≈ 11.7 µM)
- MIC (S. agalactiae GC 4564; GC4564, read-out: MINIMAL INHIBITORY CONCENTRATION MIC, Water): 8 µg/mL (≈ 11.7 µM)
- MIC (E. coli GC 2232; GC2232, read-out: MINIMAL INHIBITORY CONCENTRATION MIC, Human Serum): > 64 µg/mL
- MIC (E. coli GC 2232; GC2232, read-out: MINIMAL INHIBITORY CONCENTRATION MIC, Mouse Serum): > 64 µg/mL
- MIC (E. coli GC 2232; GC2232, read-out: MINIMAL INHIBITORY CONCENTRATION MIC, Water): > 64 µg/mL
- MIC (S. aureus GC 2216; GC2216, read-out: MINIMAL INHIBITORY CONCENTRATION MIC, Human Serum): 4 µg/mL (≈ 5.83 µM)
- MIC (S. aureus GC 2216; GC2216, read-out: MINIMAL INHIBITORY CONCENTRATION MIC, Mouse Serum): 4 µg/mL (≈ 5.83 µM)
- MIC (S. aureus GC 2216; GC2216, read-out: MINIMAL INHIBITORY CONCENTRATION MIC, Water): 4 µg/mL (≈ 5.83 µM)
- MIC (S. aureus GC 6467; GC6467, read-out: MINIMAL INHIBITORY CONCENTRATION MIC, Human Serum): 4 µg/mL (≈ 5.83 µM)
- MIC (S. aureus GC 6467; GC6467, read-out: MINIMAL INHIBITORY CONCENTRATION MIC, Mouse Serum): 4 µg/mL (≈ 5.83 µM)
- MIC (S. aureus GC 6467; GC6467, read-out: MINIMAL INHIBITORY CONCENTRATION MIC, Water): 4 µg/mL (≈ 5.83 µM)
- MIC (E. coli GC 2271; GC2271, read-out: MINIMAL INHIBITORY CONCENTRATION MIC, Human Serum): > 64 µg/mL
- MIC (E. coli GC 2271; GC2271, read-out: MINIMAL INHIBITORY CONCENTRATION MIC, Mouse Serum): > 64 µg/mL
- MIC (E. coli GC 2271; GC2271, read-out: MINIMAL INHIBITORY CONCENTRATION MIC, Water): > 64 µg/mL
- MIC (E. faecalis GC 2267; GC2267, read-out: MINIMAL INHIBITORY CONCENTRATION MIC, Human Serum): 4 µg/mL (≈ 5.83 µM)
- MIC (E. faecalis GC 2267; GC2267, read-out: MINIMAL INHIBITORY CONCENTRATION MIC, Mouse Serum): 4 µg/mL (≈ 5.83 µM)
- MIC (E. faecalis GC 2267; GC2267, read-out: MINIMAL INHIBITORY CONCENTRATION MIC, Water): 4 µg/mL (≈ 5.83 µM)
- MIC (E. coli GC 2270; GC2270, read-out: MINIMAL INHIBITORY CONCENTRATION MIC, Human Serum): > 64 µg/mL
- MIC (E. coli GC 2270; GC2270, read-out: MINIMAL INHIBITORY CONCENTRATION MIC, Mouse Serum): > 64 µg/mL
- MIC (E. coli GC 2270; GC2270, read-out: MINIMAL INHIBITORY CONCENTRATION MIC, Water): > 64 µg/mL
- MIC (E. coli GC 4559; GC4559, read-out: MINIMAL INHIBITORY CONCENTRATION MIC, Human Serum): > 64 µg/mL
- MIC (E. coli GC 4559; GC4559, read-out: MINIMAL INHIBITORY CONCENTRATION MIC, Mouse Serum): 64 µg/mL (≈ 93.3 µM)
- MIC (E. coli GC 4559; GC4559, read-out: MINIMAL INHIBITORY CONCENTRATION MIC, Water): > 64 µg/mL
- MIC (E. coli GC 4560; GC4560, read-out: MINIMAL INHIBITORY CONCENTRATION MIC, Human Serum): 4 µg/mL (≈ 5.83 µM)
- MIC (E. coli GC 4560; GC4560, read-out: MINIMAL INHIBITORY CONCENTRATION MIC, Mouse Serum): 4 µg/mL (≈ 5.83 µM)
- MIC (E. coli GC 4560; GC4560, read-out: MINIMAL INHIBITORY CONCENTRATION MIC, Water): 4 µg/mL (≈ 5.83 µM)
- MIC (E. faecalis GC 2242; GC2242, read-out: MINIMAL INHIBITORY CONCENTRATION MIC, Human Serum): 4 µg/mL (≈ 5.83 µM)
- MIC (E. faecalis GC 2242; GC2242, read-out: MINIMAL INHIBITORY CONCENTRATION MIC, Mouse Serum): 2 µg/mL (≈ 2.92 µM)
- MIC (E. faecalis GC 2242; GC2242, read-out: MINIMAL INHIBITORY CONCENTRATION MIC, Water): 4 µg/mL (≈ 5.83 µM)
- MIC (E. coli GC 2231; GC2231, read-out: MINIMAL INHIBITORY CONCENTRATION MIC, Human Serum): > 64 µg/mL
- MIC (E. coli GC 2231; GC2231, read-out: MINIMAL INHIBITORY CONCENTRATION MIC, Mouse Serum): > 64 µg/mL
- MIC (E. coli GC 2231; GC2231, read-out: MINIMAL INHIBITORY CONCENTRATION MIC, Water): > 64 µg/mL
- MIC (S. aureus GC 6335; GC6335, read-out: MINIMAL INHIBITORY CONCENTRATION MIC, Human Serum): 4 µg/mL (≈ 5.83 µM)
- MIC (S. aureus GC 6335; GC6335, read-out: MINIMAL INHIBITORY CONCENTRATION MIC, Mouse Serum): 4 µg/mL (≈ 5.83 µM)
- MIC (S. aureus GC 6335; GC6335, read-out: MINIMAL INHIBITORY CONCENTRATION MIC, Water): 4 µg/mL (≈ 5.83 µM)
- MIC (S. pneumoniae* GC 4465; [1]): 4 µg/mL (≈ 5.83 µM)
- MIC (S. pneumoniae* GC 4465; [2]): 4 µg/mL (≈ 5.83 µM)
- MIC (S. pneumoniae* GC 4465; [3]): 4 µg/mL (≈ 5.83 µM)
SMILES: CC(C)COC(=O)N(CC(=O)Nc1cc(N(C)C)c2c(c1O)C(=O)C1=C(O)[C@]3(O)C(=O)C(C(N)=O)=C(O)[C@@H](N(C)C)[C@@H]3C[C@@H]1C2)C(C)(C)C [Example 59, isobutyl 2-{[(5aR,6aS,7S,10aS)-9-(aminocarbonyl)-4,7-bis(dimethylamino)-1,8,10a,11-tetrahydroxy-10,12-dioxo-5,5a,6,6a,7,10,10a,12-octahydrotetracen-2-yl]amino}-2-oxoethyl(tert-butyl)carbamate]
